Assay results as given in ChEMBL document CHEMBL1212927, “Synthesis and structure-activity relationships of novel 8a-aza-8a-homoerythromycin A ketolides” (2010).

Legend:
[1] = tested on: Staphylococcus aureus; experiment: Antibacterial activity against inducible macrolide-lincosamide-streptogramin B-resistant Staphylococcus aureus B0538 by agar microdilution method; format: functional
[2] = tested on: Staphylococcus aureus; experiment: Antibacterial activity against constitutive macrolide-lincosamide-streptogramin B-resistant Staphylococcus aureus B0330 by agar microdilution method; format: functional
[3] = tested on: Staphylococcus aureus; experiment: Antibacterial activity against efflux-resistant Staphylococcus aureus B0331 by agar microdilution method; format: functional
[4] = tested on: Streptococcus pneumoniae; experiment: Antibacterial activity against constitutive macrolide-lincosamide-streptogramin B-resistant Streptococcus pneumoniae B0627 by agar microdilution method; format: functional
[5] = tested on: Streptococcus pneumoniae; experiment: Antibacterial activity against efflux-resistant Streptococcus pneumoniae B0326 by agar microdilution method; format: functional
[6] = tested on: Streptococcus pyogenes; experiment: Antibacterial activity against inducible macrolide-lincosamide-streptogramin B-resistant Streptococcus pyogenes B0543 by agar microdilution method; format: functional
[7] = tested on: Streptococcus pyogenes; experiment: Antibacterial activity against constitutive macrolide-lincosamide-streptogramin B-resistant Streptococcus pyogenes B0544 by agar microdilution method; format: functional
[8] = tested on: Streptococcus pyogenes; experiment: Antibacterial activity against efflux-resistant Streptococcus pyogenes B0545 by agar microdilution method; format: functional
[9] = tested on: Moraxella catarrhalis; experiment: Antibacterial activity against Moraxella catarrhalis B0324 by agar microdilution method; format: functional
[10] = tested on: Haemophilus influenzae; experiment: Antibacterial activity against Haemophilus influenzae B0529 by agar microdilution method; format: functional
[11] = tested on: Staphylococcus aureus; experiment: Antibacterial activity against erythromycin A-susceptible Staphylococcus aureus B0329 by agar microdilution method
[12] = tested on: Streptococcus pneumoniae; experiment: Antibacterial activity against erythromycin-susceptible Streptococcus pneumoniae B0541 by agar microdilution method
[13] = tested on: Streptococcus pyogenes; experiment: Antibacterial activity against erythromycin A-susceptible Streptococcus pyogenes B0542 by agar microdilution method

CC[C@H]1OC(=O)[C@H](C)C(=O)[C@H](C)[C@@H](O[C@@H]2O[C@H](C)C[C@H](N(C)C)[C@H]2O)[C@](C)(OCC(O)CN[C@H](C)Cc2ccc(OC)cc2)C[C@@H](C)NC(=O)[C@H](C)[C@@H](O)[C@]1(C)O (mixture of isomers) was tested, and the MIC [1] was 2 µg/mL, the MIC [2] was > 64 µg/mL and the MIC [3] was 4 µg/mL. It also gave an MIC [4] of 2 µg/mL, an MIC [5] of 16 µg/mL and an MIC [6] of 1 µg/mL. The MIC [7] was 8 µg/mL, the MIC [8] was 1 µg/mL and the MIC [9] was 0.5 µg/mL. For the same compound, the MIC [10] was 16 µg/mL, the MIC [11] was 1 µg/mL and the MIC [12] was ≤ 0.125 µg/mL. The MIC [13] was 0.5 µg/mL.

With CC[C@H]1OC(=O)[C@H](C)C(=O)[C@H](C)[C@@H](O[C@@H]2O[C@H](C)C[C@H](N(C)C)[C@H]2O)[C@](C)(OCC(O)CN2CCN(c3cccc(C(F)(F)F)c3)CC2)C[C@@H](C)NC(=O)[C@H](C)[C@@H](O)[C@]1(C)O (mixture of isomers) the MIC [1] was 4 µg/mL, the MIC [2] was > 64 µg/mL and the MIC [3] was 4 µg/mL. It also gave an MIC [4] of 16 µg/mL, an MIC [5] of 4 µg/mL and an MIC [6] of 4 µg/mL. For the same compound, the MIC [7] was 16 µg/mL, the MIC [8] was 2 µg/mL and the MIC [9] was 1 µg/mL. The MIC [10] was 16 µg/mL, the MIC [11] was 4 µg/mL and the MIC [12] was 0.5 µg/mL. For the same compound, the MIC [13] was ≤ 0.125 µg/mL.
